Key:
[1] = target: PIM3 (Homo sapiens, UniProt Q86V86); assay: KinaseGlo Pim3 ATP depletion assay; assay type: biochemical
In short: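 Residual ATP was detected by luciferase luminescence once about half had been consumed. The reaction contained 5 nM enzyme, 100 μM BAD peptide (RSRHSSYPAGT) and 40 μM ATP in 50 mM HEPES pH 7.5, 5 mM MgCl2, 1 mM DTT and 0.05% BSA with 2.5% DMSO. Compound and enzyme/peptide were premixed 15 min before ATP.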

[2] = target: PIM1 (Homo sapiens, UniProt P11309); assay: KinaseGlo Pim1 ATP depletion assay; assay type: biochemical
PIM1, sequence (P11309 whole entry): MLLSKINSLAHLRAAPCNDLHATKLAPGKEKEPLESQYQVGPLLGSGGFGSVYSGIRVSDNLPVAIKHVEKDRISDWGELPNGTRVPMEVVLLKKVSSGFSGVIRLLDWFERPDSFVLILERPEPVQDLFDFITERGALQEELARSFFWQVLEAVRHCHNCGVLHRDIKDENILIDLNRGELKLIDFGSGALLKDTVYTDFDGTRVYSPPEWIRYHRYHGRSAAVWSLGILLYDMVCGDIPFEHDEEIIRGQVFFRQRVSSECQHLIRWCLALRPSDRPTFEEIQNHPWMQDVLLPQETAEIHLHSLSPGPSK
In short: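 IC50 is derived from residual ATP measured by KinaseGlo Plus luminescence once about half the ATP was consumed. Final conditions were 20 μM ATP, 40 μM BAD peptide and 2.5 nM kinase in HEPES pH 7.5 buffer with MgCl2, DTT and BSA, plus 2.5% DMSO. Compound and enzyme were premixed 15 min before ATP addition.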

[3] = target: PIM2 (Homo sapiens, UniProt Q9P1W9); assay: KinaseGlo Pim2 ATP depletion assay; assay type: biochemical
PIM2, sequence (Q9P1W9 whole entry): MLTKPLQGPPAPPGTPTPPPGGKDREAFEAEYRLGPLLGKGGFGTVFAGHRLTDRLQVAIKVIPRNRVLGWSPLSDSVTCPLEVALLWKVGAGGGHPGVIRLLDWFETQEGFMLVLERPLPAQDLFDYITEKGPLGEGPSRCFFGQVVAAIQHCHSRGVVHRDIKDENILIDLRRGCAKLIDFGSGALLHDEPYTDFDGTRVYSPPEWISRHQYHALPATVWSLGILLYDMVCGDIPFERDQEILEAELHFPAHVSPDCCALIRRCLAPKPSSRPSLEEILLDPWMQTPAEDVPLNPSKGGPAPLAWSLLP
In short: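 Compound sat 15 min with enzyme and BAD peptide before ATP was added; final levels 5 nM PIM2, 10 μM peptide, 4 μM ATP, 2.5% DMSO, pH 7.5 HEPES buffer with MgCl2, DTT, BSA. Stopped near 50% ATP consumption; remaining ATP measured by luciferase luminescence.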

[4] = target: GSK3β (Homo sapiens, UniProt P49841); assay: GSK3β ATP depletion assay; assay type: biochemical; conditions: read-out: GSK3b IC50
GSK3β, sequence (P49841 whole entry, species assumed): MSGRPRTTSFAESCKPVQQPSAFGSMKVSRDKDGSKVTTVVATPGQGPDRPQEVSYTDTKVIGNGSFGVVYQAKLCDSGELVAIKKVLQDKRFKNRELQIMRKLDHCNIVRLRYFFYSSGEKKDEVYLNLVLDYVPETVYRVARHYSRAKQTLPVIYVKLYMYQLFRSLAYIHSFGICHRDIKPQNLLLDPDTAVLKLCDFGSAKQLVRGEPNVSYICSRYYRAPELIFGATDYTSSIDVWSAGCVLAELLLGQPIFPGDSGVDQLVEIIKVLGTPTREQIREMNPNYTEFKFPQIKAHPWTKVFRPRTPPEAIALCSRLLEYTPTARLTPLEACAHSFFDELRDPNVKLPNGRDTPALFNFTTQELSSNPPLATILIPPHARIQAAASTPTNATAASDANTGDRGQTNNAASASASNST
In short: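 Kinase activity is read as ATP consumption: luciferase luminescence reports the ATP remaining once roughly half of the 2 μM ATP is used. Reaction mix: 5 nM GSK3β, 10 μM b-CREB peptide, 50 mM Tris pH 7.5, 15 mM MgCl2, 1 mM DTT, 0.1% BSA, 2.5% DMSO. Enzyme and peptide are preincubated 15 min before ATP is added.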

[5] = test system: KMS11 (human myeloma cell line); assay: Cell proliferation assay (CellTiter-Glo), KMS11; assay type: cell-based; conditions: KMS11-Luc cells
In short: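 EC50 derived from CellTiter-Glo luminescence after 3-day exposure at 37° C. Compound was diluted to 2× in medium and added to an equal volume of cells. KMS11 myeloma cells were plated on assay day at 2000/well in IMDM with 10% FBS and sodium pyruvate.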

IC50 [1] [nM]	IC50 [2] [nM]	IC50 [3] [nM]	IC50 [4] [nM]	EC50 ([5]; Homo sapiens, KMS-11) [nM]	EC50 [5] [nM]	SMILES
143	79.8	458	209	> 10000	–	N#C[C@H]1O[C@@H](c2ccncc2NC(=O)c2ccnc(-c3c(F)cccc3F)n2)C[C@@H](O)[C@@H]1O [Example 149, N-(4-((2R,4R,5S,6R)-6-cyano-4,5-dihydroxytetrahydro-2H-pyran-2-yl)pyridin-3-yl)-2-(2,6-difluorophenyl)pyrimidine-4-carboxamide]
53.3	57.1	156	207	> 10000	–	N#C[C@H]1O[C@@H](c2ccncc2NC(=O)c2nc(-c3nccs3)ccc2N)C[C@@H](O)[C@@H]1O [Example 150, 3-amino-N-(4-((2R,4R,5S,6R)-6-cyano-4,5-dihydroxytetrahydro-2H-pyran-2-yl)pyridin-3-yl)-6-(thiazol-2-yl)picolinamide]
25.1	5.2	84.2	1430	> 10000	–	Nc1cc(F)c(-c2ccccc2F)nc1C(=O)Nc1cnccc1C1=CC(=O)[C@H](O)[C@@H](CCl)O1 [Example 151, 3-amino-N-(4-((2S,3R)-2-(chloromethyl)-3-hydroxy-4-oxo-3,4-dihydro-2H-pyran-6-yl)pyridin-3-yl)-5-fluoro-6-(2-fluorophenyl)picolinamide]
2.3	1.3	5.4	450	–	> 10000	N#CC[C@H]1O[C@@H](c2ccncc2NC(=O)c2nc(-c3c(F)cccc3F)c(F)cc2N)C[C@@H](O)[C@@H]1O [Example 152, 3-amino-N-(4-((2R,4R,5S,6R)-6-(cyanomethyl)-4,5-dihydroxytetrahydro-2H-pyran-2-yl)pyridin-3-yl)-6-(2,6-difluorophenyl)-5-fluoropicolinamide]
13.5	23.6	26.7	235	–	> 10000	N#CC[C@H]1O[C@@H](c2ccncc2NC(=O)c2nc(-c3c(F)cccc3F)ncc2N)C[C@@H](O)[C@@H]1O [Example 153, 5-amino-N-(4-((2R,4R,5S,6R)-6-(cyanomethyl)-4,5-dihydroxytetrahydro-2H-pyran-2-yl)pyridin-3-yl)-2-(2,6-difluorophenyl)pyrimidine-4-carboxamide]
5.3	4	46.3	374	4920	–	CC[C@]1(O)[C@H](O)C[C@H](c2ccncc2NC(=O)c2nc(-c3ncccc3F)ccc2N)O[C@@H]1C [Example 155, 5-amino-N-(4-((2R,4R,5S,6R)-5-ethyl-4,5-dihydroxy-6-methyltetrahydro-2H-pyran-2-yl)pyridin-3-yl)-3′-fluoro-2,2′-bipyridine-6-carboxamide]
42.4	25.4	532	21.9	> 10000	–	CC[C@]1(O)[C@H](O)C[C@H](c2ccncc2NC(=O)c2nc(-c3cnn(C)c3C)ccc2N)O[C@@H]1C [Example 156, 3-amino-6-(1,5-dimethyl-1H-pyrazol-4-yl)-N-(4-((2R,4R,5S,6R)-5-ethyl-4,5-dihydroxy-6-methyltetrahydro-2H-pyran-2-yl)pyridin-3-yl)picolinamide]
8.1	8	34.6	7.9	9630	–	CC[C@]1(O)[C@H](O)C[C@H](c2ccncc2NC(=O)c2nc(-c3ccncc3F)ccc2N)O[C@@H]1C [Example 157, 5-amino-N-(4-((2R,4R,5S,6R)-5-ethyl-4,5-dihydroxy-6-methyltetrahydro-2H-pyran-2-yl)pyridin-3-yl)-3′-fluoro-2,4′-bipyridine-6-carboxamide]
6.9	8.8	68.1	23.1	> 10000	–	CC[C@]1(O)[C@H](O)C[C@H](c2ccncc2NC(=O)c2ncccc2N)O[C@@H]1C [Example 158, 3-amino-N-(4-((2R,4R,5S,6R)-5-ethyl-4,5-dihydroxy-6-methyltetrahydro-2H-pyran-2-yl)pyridin-3-yl)picolinamide]
260	166	1640	67.4	> 10000	–	CC[C@]1(O)[C@H](O)C[C@H](c2ccncc2NC(=O)c2nc(-c3ccnnc3)ccc2N)O[C@@H]1C [Example 160, 3-amino-N-(4-((2R,4R,5S,6R)-5-ethyl-4,5-dihydroxy-6-methyltetrahydro-2H-pyran-2-yl)pyridin-3-yl)-6-(pyridazin-4-yl)picolinamide]
15.8	32.8	22.3	1430	> 10000	–	C=C[C@H]1O[C@@H](c2ccncc2NC(=O)c2nc(-c3c(F)cccc3F)ncc2N)C[C@@H](O)[C@@H]1O [Example 161, 5-amino-2-(2,6-difluorophenyl)-N-(4-((2R,4R,5S,6R)-4,5-dihydroxy-6-vinyltetrahydro-2H-pyran-2-yl)pyridin-3-yl)pyrimidine-4-carboxamide]
178	216	818	13500	> 10000	–	CC[C@H]1O[C@@H](c2ncncc2NC(=O)c2ccc(F)c(-c3c(F)cccc3F)n2)C[C@@H](O)[C@@H]1O [Example 162, 6-(2,6-difluorophenyl)-N-(4-((2R,4R,5S,6R)-6-ethyl-4,5-dihydroxytetrahydro-2H-pyran-2-yl)pyrimidin-5-yl)-5-fluoropicolinamide]
1.6	0.8	1.9	2070	2760	–	CC[C@H]1O[C@@H](c2ccncc2NC(=O)c2ccc(F)c(-c3c(F)cccc3F)n2)C[C@@H](O)[C@]1(C)O [Example 164, 6-(2,6-difluorophenyl)-N-(4-((2R,4R,5S,6R)-6-ethyl-4,5-dihydroxy-5-methyltetrahydro-2H-pyran-2-yl)pyridin-3-yl)-5-fluoropicolinamide]
35.9	9	67.7	2680	> 10000	–	CC[C@@H]1O[C@H](c2ccncc2NC(=O)c2nc(-c3c(F)cccc3F)c(F)cc2N)C[C@H](O)[C@@]1(C)O [Example 165, 3-amino-6-(2,6-difluorophenyl)-N-(4-((2S,4S,5R,6S)-6-ethyl-4,5-dihydroxy-5-methyltetrahydro-2H-pyran-2-yl)pyridin-3-yl)-5-fluoropicolinamide]
1.5	0.6	1.2	1680	1330	–	CC[C@H]1O[C@@H](c2ccncc2NC(=O)c2nc(-c3c(F)cccc3F)c(F)cc2N)C[C@@H](O)[C@]1(C)O [Example 166, 3-amino-6-(2,6-difluorophenyl)-N-(4-((2R,4R,5S,6R)-6-ethyl-4,5-dihydroxy-5-methyltetrahydro-2H-pyran-2-yl)pyridin-3-yl)-5-fluoropicolinamide]
86.7	65.5	92	3410	> 10000	–	CC[C@@H]1O[C@H](c2ccncc2NC(=O)c2nc(-c3c(F)cccc3F)ncc2N)C[C@H](O)[C@@]1(C)O [Example 167, 5-amino-2-(2,6-difluorophenyl)-N-(4-((2S,4S,5R,6S)-6-ethyl-4,5-dihydroxy-5-methyltetrahydro-2H-pyran-2-yl)pyridin-3-yl)pyrimidine-4-carboxamide]
2.7	3	2.3	1030	5900	–	CC[C@H]1O[C@@H](c2ccncc2NC(=O)c2nc(-c3c(F)cccc3F)ncc2N)C[C@@H](O)[C@]1(C)O [Example 168, 5-amino-2-(2,6-difluorophenyl)-N-(4-((2R,4R,5S,6R)-6-ethyl-4,5-dihydroxy-5-methyltetrahydro-2H-pyran-2-yl)pyridin-3-yl)pyrimidine-4-carboxamide]
13.2	14.4	9.3	1660	> 10000	–	CCC[C@H]1O[C@@H](c2ccncc2NC(=O)c2nc(-c3c(F)cccc3F)ncc2N)C[C@@H](O)[C@@H]1O [Example 169, 5-amino-2-(2,6-difluorophenyl)-N-(4-((2R,4R,5S,6R)-4,5-dihydroxy-6-propyltetrahydro-2H-pyran-2-yl)pyridin-3-yl)pyrimidine-4-carboxamide]
1.6	0.5	1.3	19.8	2630	–	O=C(Nc1cnccc1[C@H]1C[C@@H](O)[C@@]2(O)CCCC[C@H]2O1)c1ccc(F)c(-c2c(F)cccc2F)n1 [Example 174, 6-(2,6-difluorophenyl)-N-(4-((2R,4R,4aS,8aR)-4,4a-dihydroxyoctahydro-2H-chromen-2-yl)pyridin-3-yl)-5-fluoropicolinamide]

From patent publication US20130109682A1, “CYCLIC ETHER COMPOUNDS USEFUL AS KINASE INHIBITORS” (NOVARTIS AG, priority 2010, published 2013)
